Assays:
[1] = test system: eye of normal adult white rabbits; assay: IOP after topical drops of 1% solution, Examples 6 and 7; format: in vivo, rabbit; design: unit: mm Hg; conditions: 3 drops
Procedure: A 1% solution of 1-(N-hydroxy-N-methylsulfamido)-4-chlorobenzene and a 1% solution of 1-(N-hydroxy-N-methyl-sulfamido)-4-nitrobenzene were prepared for two separate experiments, examples 6 and 7 resepctively. The vehicle consisted of aqueous pH 7.2 phosphate buffer. One drop, followed by two drops each at one minute intervals, was applied to one eye of normal adult white rabbits. Six rabbits were used in example 6 and twelve rabbits in example 7. The treated eye was selected randomly, whereas, the fellow eye received placebo. The observer was masked. The intraocular pressure (IOP) was measured with a Digilab pneumotonometer, initially and every ten minutes for 180 minutes in each experiment following instillation of the anti-glaucoma agent. A drop of local anesthetic was applied to each eye just prior to making the measurement.

[2] = test system: eye of normal adult white rabbits; assay: Salted rabbit test: intraocular pressure (IOP) after topical drops; format: in vivo
Procedure: In particular, an initial drop from the test formulation followed by two drops at one minute intervals are applid to one eye of each of six adult white rabbits that had been maintained on a diet containing 0.5% sodium. The treated eye was selected randomly, whereas, the fellow eye received placebo; the observer was masked. Results identified a small but significant reduction of intraocular pressure in the treated eye at 30, 60 and 120 minutes.
One drop, followed by two drops each at one minute intervals, was applied to one eye of normal adult white rabbits. Six rabbits were used in the experiment. The treated eye was selected randomly, whereas, the fellow eye received placebo. The observer was masked. The intraocular pressure (IOP) was measured with a Digilab Pneumotonometer, initially and every ten minutes for 120 minutes following instillation of the anti-glaucoma agent. A drop of local anesthetic was applied just prior to making the measurement.
IOP* Changes = (IOPDET - IOPCET) - (IOPDEO - IOPCEO)
IOPDET = measurement (mm Hg) of dosed eye at time t.
IOPDEO = measurement (mm Hg) of dosed eye at t = 0, but prior to
IOPDET = IOP measurement (mm Hg) of control (nondosed) eye at time t
IOPCEO = IOP measurement (mm Hg) of control eye at time t = 0
*Difference in IOP measurements (mm Hg) between both eyes just prior to
dosing at t = 0 (i.e., IOPDEO - IOPCEO).

carbonic anhydrase = assay: in vitro carbonic anhydrase activity, simplified method of Maren; format: biochemical
Procedure: The procedure required the use of a specialized glass reaction vessel to which was added 0.4 ml phenol red indicator (0.00125%), 0.25 to 0.30 ml heparinized blood containing 2 enzyme units of carbonic anhydrase, 0.1 ml drug solution (0.01 to 100 mg/L) and 0.1 ml of 0.255 M carbonate buffer. […] Water was added to the reaction vessel which was kept in a water bath at 0±0.25° C. The reaction cell was constantly purged with CO2 at a rate of 200 to 250 ml/min. Each reagent was added at a specified time and in a specified order. […] The time required for the reaction begins with the addition of carbonate buffer and was completed with the indicator changed from red to yellow. […] Reaction time was the time for the uncatalyzed reaction time. The reaction times remain constant once equilibration has been attained. By varying the time before adding the carbonate buffer and then determining the reaction time, the equilibration time can be accurately determined. The reaction time was averaged over three determinations. A range of drug concentrations were reacted and the concentration of drug causing 50% inhibition of enzyme (I50) read from a plot of reaction time against drug concentration. (If two enzyme units are added, then the concentration of drug yielding a reaction time corresponding to the activity of one unit is taken as the I50). An enzyme unit (e.u.) was calculated from: [formula]

For CN(O)S(=O)(=O)c1ccc([N+](=O)[O-])cc1 [1-(N-hydroxy-N-methyl-sulfamido)-4-nitrobenzene], the “IOP changes, Ave. change” value ([1]; Example 7, 0 min) was 0.167, the “IOP changes, Ave. change” value ([1]; Example 7, 10 min) was 0.333 and the “IOP changes, Ave. change” value ([1]; Example 7, 20 min) was -0.333. For the same compound, the “IOP changes, Ave. change” value ([1]; Example 7, 30 min) was “-.667”, the “IOP changes, Ave. change” value ([1]; Example 7, 40 min, probability less than 0.05) was -1.67 and the “IOP changes, Ave. change” value ([1]; Example 7, 50 min, probability less than 0.025) was -1.83. For the same compound, the “IOP changes, Ave. change” value ([1]; Example 7, 60 min, probability less than 0.025 (footnote)) was 1.67, the “IOP changes, Ave. change” value ([1]; Example 7, 70 min, probability less than 0.025) was -2.0 and the “IOP changes, Ave. change” value ([1]; Example 7, 80 min, probability less than 0.05) was -1.167. For the same compound, the “IOP changes, Ave. change” value ([1]; Example 7, 90 min) was 0.2, the “IOP changes, Ave. change” value ([1]; Example 7, 100 min) was -0.5 and the “IOP changes, Ave. change” value ([1]; Example 7, 110 min) was -0.33. The “IOP changes, Ave. change” value ([1]; Example 7, 120 min) was -1.00.

For CN(O)S(=O)(=O)c1ccc(Cl)cc1 [1-(N-hydroxy-N-methylsulfamido)-4-chlorobenzene], the “IOP changes, Ave. change” value ([1]; Example 6, 0 min) was 0.417, the “IOP changes, Ave. change” value ([1]; Example 6, 20 min) was 0.617 and the “IOP changes, Ave. change” value ([1]; Example 6, 40 min) was 1.00. The “IOP changes, Ave. change” value ([1]; Example 6, 60 min, probability less than 0.025) was -1.25, the “IOP changes, Ave. change” value ([1]; Example 6, 80 min) was 0.167 and the “IOP changes, Ave. change” value ([1]; Example 6, 100 min) was 0.667. The “IOP changes, Ave. change” value ([1]; Example 6, 120 min) was 0.333, the “IOP changes, Ave. change” value ([1]; Example 6, 140 min) was “-.333” and the “IOP changes, Ave. change” value ([1]; Example 6, 160 min) was -0.25. For the same compound, the “IOP changes, Ave. change” value ([1]; Example 6, 180 min) was -0.25.

In the case of CNS(=O)(=O)c1nnc(NC(C)=O)s1 [methyl acetazolamide, N-methyl-2-acetylamino-1,3,4-thiadiazole-5-sulfonamide], the “IOP difference between both eyes, Av. Chg.” value ([2]; 0 min, just prior to dosing (baseline, IOPDEO - IOPCEO), six rabbits) is reported as 1.83 mm Hg, the “lowering of IOP, statistical significance” value ([2]; 1% w/v suspension, 3 drops, all time intervals to 120 min) is reported as “statistically significant at all time intervals” and the “reduction of intraocular pressure” value ([2]; after topical administration) is reported as “able to reduce intraocular pressure”. For the same compound, the “averaged I50 (concentration of drug causing 50% inhibition of enzyme)” value (carbonic anhydrase; 2 enzyme units of carbonic anhydrase in heparinized blood, 0° C., averaged over three determinations) was 0.520 mg, the “in vitro activity” value (carbonic anhydrase; in vitro) was “inactive in vitro” and the “activity relative to acetazolamide (ratio of I50 values)” value (carbonic anhydrase; ratio 0.52/0.00914) was 1/60.

— US4483872A, “Non-classical topical treatment for glaucoma using n-substituted sulfonamides” (University of Iowa Research Foundation, priority 1983, dated 1984)
